Test results taken from patent publication US10875875B2, “Propionic acid derivatives and methods of use thereof” (Aviara Pharmaceuticals, Inc., priority 2017, dated 2020).
Read-outs that look alike come from different tables or passages of the source.

Molecular target: α4β1 (Homo sapiens, UniProt P05556+P13612)
Experiment: α4β1 integrin inhibition, IC50
Format: binding

α4β1, sequence (P13612 34-1032): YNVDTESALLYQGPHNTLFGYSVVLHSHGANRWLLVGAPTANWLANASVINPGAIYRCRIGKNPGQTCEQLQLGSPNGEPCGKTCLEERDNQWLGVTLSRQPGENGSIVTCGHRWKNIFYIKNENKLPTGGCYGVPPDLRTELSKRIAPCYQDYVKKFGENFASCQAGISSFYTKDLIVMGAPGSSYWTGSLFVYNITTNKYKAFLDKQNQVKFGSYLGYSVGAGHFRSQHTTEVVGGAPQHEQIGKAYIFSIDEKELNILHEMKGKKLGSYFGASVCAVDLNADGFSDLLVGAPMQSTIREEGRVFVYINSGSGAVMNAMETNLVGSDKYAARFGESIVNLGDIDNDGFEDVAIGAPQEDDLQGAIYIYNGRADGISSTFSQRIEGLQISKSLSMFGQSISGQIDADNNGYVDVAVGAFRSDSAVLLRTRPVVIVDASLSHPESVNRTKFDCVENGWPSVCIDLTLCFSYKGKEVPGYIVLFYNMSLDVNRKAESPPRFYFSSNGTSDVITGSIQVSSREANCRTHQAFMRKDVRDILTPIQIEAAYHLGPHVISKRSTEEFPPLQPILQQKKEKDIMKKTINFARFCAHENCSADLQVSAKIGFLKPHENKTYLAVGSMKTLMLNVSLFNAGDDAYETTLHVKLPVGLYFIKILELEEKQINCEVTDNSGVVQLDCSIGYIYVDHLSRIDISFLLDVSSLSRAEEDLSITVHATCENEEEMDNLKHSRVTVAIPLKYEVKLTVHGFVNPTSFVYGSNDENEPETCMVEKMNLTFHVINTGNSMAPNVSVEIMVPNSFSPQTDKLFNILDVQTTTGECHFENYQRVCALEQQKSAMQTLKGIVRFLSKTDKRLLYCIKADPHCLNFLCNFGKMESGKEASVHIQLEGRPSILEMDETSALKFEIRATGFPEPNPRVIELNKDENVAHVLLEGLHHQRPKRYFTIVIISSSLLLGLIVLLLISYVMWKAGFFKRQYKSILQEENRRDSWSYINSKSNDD
α4β1, sequence (P05556 21-798): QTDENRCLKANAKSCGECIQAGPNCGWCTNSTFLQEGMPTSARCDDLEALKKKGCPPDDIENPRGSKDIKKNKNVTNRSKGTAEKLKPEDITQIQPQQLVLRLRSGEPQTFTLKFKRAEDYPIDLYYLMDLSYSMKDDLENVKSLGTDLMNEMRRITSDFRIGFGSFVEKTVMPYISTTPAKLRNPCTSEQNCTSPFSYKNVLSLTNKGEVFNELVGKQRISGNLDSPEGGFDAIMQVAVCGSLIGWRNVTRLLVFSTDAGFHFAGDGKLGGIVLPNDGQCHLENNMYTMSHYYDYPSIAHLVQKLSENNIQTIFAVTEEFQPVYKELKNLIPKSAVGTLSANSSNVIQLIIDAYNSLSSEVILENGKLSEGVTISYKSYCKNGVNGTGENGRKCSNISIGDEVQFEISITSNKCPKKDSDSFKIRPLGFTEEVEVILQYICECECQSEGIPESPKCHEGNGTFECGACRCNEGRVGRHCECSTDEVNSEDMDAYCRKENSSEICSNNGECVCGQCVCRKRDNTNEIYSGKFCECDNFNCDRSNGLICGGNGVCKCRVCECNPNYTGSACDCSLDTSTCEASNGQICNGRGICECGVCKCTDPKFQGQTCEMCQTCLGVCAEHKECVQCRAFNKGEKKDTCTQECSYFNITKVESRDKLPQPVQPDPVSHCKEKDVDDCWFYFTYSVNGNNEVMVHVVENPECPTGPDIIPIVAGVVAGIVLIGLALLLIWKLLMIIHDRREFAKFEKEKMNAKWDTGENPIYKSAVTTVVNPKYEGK

Row | Structure (SMILES) | IC50 (integrin not named at the place, read-out: IC50) | IC50 (read-out: α4β1 IC50)
1 | CCn1cc(C)c(O)c(NC(=O)NC(CC(=O)O)c2cccc(-n3cccc(-c4ccccc4)c3=O)c2)c1=O (stereo not drawn) [1-439, sodium 3-(3-(1-ethyl-5-methyl-4-oxido-2-oxo-1,2-dihydropyridin-3-yl)ureido)-3-(3-(2-oxo-3-phenylpyridin-1(2H)-yl)phenyl)propanoate] | – | > 200 nM
2 | Cc1ccccc1-c1cccc([C@H](CC(=O)O)NC(=O)Nc2c(O)c(C)cn(C)c2=O)c1 [1-440, sodium (S)-3-(3-(1,5-dimethyl-4-oxido-2-oxo-1,2-dihydropyridin-3-yl)ureido)-3-(2′-methylbiphenyl-3-yl)propanoate] | – | < 200 nM
3 | Cc1cn(C)c(=O)c(NC(=O)N[C@@H](CC(=O)O)c2cccc(-c3ccccc3F)c2)c1O [1-441, sodium (S)-3-(3-(1,5-dimethyl-4-oxido-2-oxo-1,2-dihydropyridin-3-yl)ureido)-3-(2′-fluorobiphenyl-3-yl)propanoate] | – | < 20 nM
4 | Cc1cn(C)c(=O)c(NC(=O)N[C@@H](CC(=O)O)c2ccc(F)c(-c3ccccc3)c2)c1O [1-442, sodium (S)-3-(3-(1,5-dimethyl-4-oxido-2-oxo-1,2-dihydropyridin-3-yl)ureido)-3-(6-fluorobiphenyl-3-yl)propanoate] | – | < 20 nM
5 | Cc1cn(C)c(=O)c(NC(=O)NC(CC(=O)O)c2cccc(-n3cccc3)c2)c1O (stereo not drawn) [1-445, sodium 3-(3-(1H-pyrrol-1-yl)phenyl)-3-(3-(1,5-dimethyl-4-oxido-2-oxo-1,2-dihydropyridin-3-yl)ureido)propanoate] | – | < 200 nM
6 | Cc1cn(C)c(=O)c(NC(=O)N[C@@H](CC(=O)O)c2cccc(-c3ccc(F)cc3F)c2)c1O [1-446, sodium (S)-3-(2′,4′-difluorobiphenyl-3-yl)-3-(3-(1,5-dimethyl-4-oxido-2-oxo-1,2-dihydropyridin-3-yl)ureido)propanoate] | – | < 20 nM
7 | Cc1cn(C)c(=O)c(NC(=O)N[C@@H](CC(=O)O)c2cccc(-c3cc(F)ccc3F)c2)c1O [1-447, sodium (S)-3-(2′,5′-difluorobiphenyl-3-yl)-3-(3-(1,5-dimethyl-4-oxido-2-oxo-1,2-di hydropyridin-3-yl)ureido)propanoate] | – | < 20 nM
8 | Cc1ccc([C@H](CC(=O)O)NC(=O)Nc2c(O)c(C)cn(C)c2=O)cc1-c1ccccc1 [1-448, sodium (S)-3-(3-(1,5-dimethyl-4-oxido-2-oxo-1,2-dihydropyridin-3-yl)ureido)-3-(6-methylbiphenyl-3-yl)propanoate] | – | < 200 nM
9 | COc1ccc([C@H](CC(=O)O)NC(=O)Nc2c(O)c(C)cn(C)c2=O)cc1-c1ccccc1 [1-449, sodium (S)-3-(3-(1,5-dimethyl-4-oxido-2-oxo-1,2-dihydropyridin-3-yl)ureido)-3-(6-methoxybiphenyl-3-yl)propanoate] | – | < 200 nM
10 | Cc1cn(C)c(=O)c(NC(=O)N[C@@H](CC(=O)O)c2cccc(-c3cccnc3)c2)c1O [1-452, sodium (S)-3-(3-(1,5-dimethyl-4-oxido-2-oxo-1,2-dihydropyridin-3-yl)ureido)-3-(3-(pyridin-3-yl)phenyl)propanoate] | – | < 200 nM
11 | Cc1cn(C)c(=O)c(NC(=O)N[C@@H](CC(=O)O)c2cccc(-c3cc(F)cc(F)c3)c2)c1O [1-453, sodium (S)-3-(3′,5′-difluorobiphenyl-3-yl)-3-(3-(1,5-dimethyl-4-oxido-2-oxo-1,2-di hydropyridin-3-yl)ureido)propanoate] | – | < 20 nM
12 | COc1ccccc1-c1cccc([C@H](CC(=O)O)NC(=O)Nc2c(O)c(C)cn(C)c2=O)c1 [1-456, sodium (S)-3-(3-(1,5-dimethyl-4-oxido-2-oxo-1,2-dihydropyridin-3-yl)ureido)-3-(2′-methoxybiphenyl-3-yl)propanoate] | – | < 200 nM
13 | Cc1cn(C)c(=O)c(NC(=O)N[C@@H](CC(=O)O)c2cccc(-c3ccc(F)c(F)c3)c2)c1O [1-458, sodium (S)-3-(3′,4′-difluorobiphenyl-3-yl)-3-(3-(1,5-dimethyl-4-oxido-2-oxo-1,2-di hydropyridin-3-yl)ureido)propanoate] | – | < 20 nM
14 | COc1cccc(-c2cccc([C@H](CC(=O)O)NC(=O)Nc3c(O)c(C)cn(C)c3=O)c2)c1 [1-460, sodium (S)-3-(3-(1,5-dimethyl-4-oxido-2-oxo-1,2-dihydropyridin-3-yl)ureido)-3-(3′-methoxybiphenyl-3-yl)propanoate] | – | < 200 nM
15 | Cc1cccc(-c2cccc([C@H](CC(=O)O)NC(=O)Nc3c(O)c(C)cn(C)c3=O)c2)c1C [1-462, sodium (S)-3-(3-(1,5-dimethyl-4-oxido-2-oxo-1,2-dihydropyridin-3-yl)ureido)-3-(2′,3′-dimethylbiphenyl-3-yl)propanoate] | – | < 200 nM
16 | Cc1cn(C)c(=O)c(NC(=O)NC(CC(=O)O)c2ccc(=O)n(-c3ccccc3)c2)c1O (stereo not drawn) [1-463, sodium 3-(3-(1,5-dimethyl-4-oxido-2-oxo-1,2-dihydropyridin-3-yl)ureido)-3-(6-oxo-1-phenyl-1,6-dihydropyridin-3-yl)propanoate] | – | < 200 nM

More lines, now with the values ahead:

Row | IC50 (integrin not named at the place, read-out: IC50) | IC50 (read-out: α4β1 IC50) | Structure (SMILES)
17 | < 20 nM | – | Cc1cn(C)c(=O)c(NC(=O)N[C@@H](CC(=O)O)c2cccc(-c3ccccc3)c2)c1O [1-437, sodium (S)-3-(biphenyl-3-yl)-3-(3-(1,5-dimethyl-4-oxido-2-oxo-1,2-dihydropyridin-3-yl)ureido)propanoate]
18 | – | < 200 nM | CCn1cc(C)c(O)c(NC(=O)N[C@@H](CC(=O)O)c2cccc(-c3ccccc3)c2)c1=O [1-438, sodium (S)-3-(biphenyl-3-yl)-3-(3-(1-ethyl-5-methyl-4-oxido-2-oxo-1,2-dihydropyridin-3-yl)ureido)propanoate]
19 | – | < 200 nM | CCn1cc(C)c(O)c(NC(=O)N[C@@H](CC(=O)O)c2cccc(-c3ccccc3C)c2)c1=O [1-443, sodium (S)-3-(3-(1-ethyl-5-methyl-4-oxido-2-oxo-1,2-dihydropyridin-3-yl)ureido)-3-(2′-methylbiphenyl-3-yl)propanoate]
20 | – | < 200 nM | CCn1cc(C)c(O)c(NC(=O)N[C@@H](CC(=O)O)c2cccc(-c3ccc(C)cc3)c2)c1=O [1-444, sodium (S)-3-(3-(1-ethyl-5-methyl-4-oxido-2-oxo-1,2-dihydropyridin-3-yl)ureido)-3-(4′-methylbiphenyl-3-yl)propanoate]
21 | – | < 200 nM | Cc1ccc(-c2cccc([C@H](CC(=O)O)NC(=O)Nc3c(O)c(C)cn(C)c3=O)c2)cc1 [1-450, sodium (S)-3-(3-(1,5-dimethyl-4-oxido-2-oxo-1,2-dihydropyridin-3-yl)ureido)-3-(4′-methylbiphenyl-3-yl)propanoate]
22 | – | < 200 nM | Cc1cccc(-c2cccc([C@H](CC(=O)O)NC(=O)Nc3c(O)c(C)cn(C)c3=O)c2)c1 [1-451, sodium (S)-3-(3-(1,5-dimethyl-4-oxido-2-oxo-1,2-dihydropyridin-3-yl)ureido)-3-(3′-methylbiphenyl-3-yl)propanoate]
23 | – | < 200 nM | Cc1cc(C)cc(-c2cccc([C@H](CC(=O)O)NC(=O)Nc3c(O)c(C)cn(C)c3=O)c2)c1 [1-454, sodium (S)-3-(3-(1,5-dimethyl-4-oxido-2-oxo-1,2-dihydropyridin-3-yl)ureido)-3-(3′,5′-dimethylbiphenyl-3-yl)propanoate]
24 | – | < 20 nM | Cc1ccc(C)c(-c2cccc([C@H](CC(=O)O)NC(=O)Nc3c(O)c(C)cn(C)c3=O)c2)c1 [1-459, sodium (S)-3-(3-(1,5-dimethyl-4-oxido-2-oxo-1,2-dihydropyridin-3-yl)ureido)-3-(2′,5′-dimethylbiphenyl-3-yl)propanoate]
